In patent US20140031324A1, “COMPOUND COMPOSITION FOR INHALATION USED FOR TREATING ASTHMA” (Intech Biopharm Ltd., priority 2010, published 2014):

Legend:
OVA-sensitized mice = test: Albumin (OVA)-induced asthma model in mice; methacholine-induced tracheal contraction (airway hyperresponsiveness, FlexiVent); format: in vivo, Balb/c mice; settings: single super high dose, alone or in combination, intratracheal, FIGS. 2 to 4
Experimental: An albumin-inducing asthma model in mice was used to conduct related tests. In accordance with the control group and the experimental group, the mice were divided into the different groups to conduct the experiment. The control group includes a normal control group which none sensitized mice are given saline (no drug), and an asthma control group which sensitized mice are treated with vehicle. The experimental group is divided into sub-group according to different methods of administering drugs. Respectively, such as the group which is using different dosage and different frequency of the beta2-agonist alone and the group which is using different dosage and different frequency of the pharmaceutical combination of the beta2-agonist with the corticosteroid.
The mice which are for sensitization all experience three times of the peritoneal albumin (OVA) injection with ten-day intervals in advance, on the 24th day, collect the blood sample and exam the IgE to confirm allergy. Then, on the 26th day, albumin was administered in the nasal cavities of the mice. And, from the 30th day, the intratracheal administration is divided into groups of once time dosing and seven-day dosing which is further divided into once or twice daily groups. After the last dose, perform a tracheotomy and intubation and use instruments collect the data of that Methacholine (MCh), induces tracheal contraction. […]

[1] = long acting beta-2 agonists (LABA); cited from earlier work

In the case of `OCc1cc(C(O)CNCCCCCCOCCCCc2ccccc2)ccc1O` (stereo not drawn) [Salmeterol, Salmeterol Xinafoate], the “acute drug tolerance (ability of trachea relaxing)” value (OVA-sensitized mice) is listed as “acute drug tolerance phenomenon of reducing the ability of trachea relaxing” and the duration of action [1] is listed as “up to twelve”.
For `CCC(NC(C)C)C(O)c1ccc(O)c2[nH]c(=O)ccc12` (stereo not drawn) [Procaterol], the “acute drug tolerance (ability of trachea relaxing)” value (OVA-sensitized mice) was “acute drug tolerance phenomenon of reducing the ability of trachea relaxing”.
